Read-outs that look alike come from different tables or passages of the source.
What was measured:
[1] = target: T1, human growth hormone secretagogue receptor (hGHS-R1a) (Homo sapiens, UniProt Q92847); assay: Competitive radioligand binding assay (ghrelin receptor), [125I]-ghrelin displacement
T1 construct: purchased PerkinElmer BioSignal #RBHGHSM, lot#1887; host or cells: HEK-293, stably transfected
Procedure: The competitive binding assay at the human growth hormone secretagogue receptor (hGHS-R1a) was carried out analogously to assays described in the literature.
Multiscreen Harvest plates-GF/C (Millipore, #MAHFC1H60) • 4. […] Bottom seal (Millipore, #MATAH0P00) • 7. […] Binding Buffer: 25 mM Hepes (pH 7.4), 1 mM CaCl2, 5 mM MgCl2, 2.5 mM EDTA, 0.4% BSA Assay Volumes
Competition experiments were performed in a 300 μl filtration assay format. • 1. 220 μL of membranes diluted in binding buffer • 2. 40 μL of compound diluted in binding buffer • 3. […] Compound Handling
Compounds were provided frozen on dry ice at a stock concentration of 10 mM diluted in 100% DMSO and stored at −80° C. until the day of testing. On the test day, compounds were allowed to thaw at rt O/N and then diluted in assay buffer according to the desired test concentrations.
Plates were sealed with TopSeal-A, vortexed gently and incubated at rt for 30 min. The reaction was arrested by filtering samples through Multiscreen Harvest plates (pre-soaked in 0.5% polyethyleneimine) using a Tomtec Harvester, washed 9 times with 500 μL of cold 50 mM Tris-HCl (pH 7.4, 4° C.), and then plates were air-dried in a fumehood for 30 min. A bottom seal was applied to the plates prior to the addition of 25 μL of MicroScint-0 to each well. […] Results were expressed as counts per minute (cpm).
Data were analyzed by GraphPad Prism (GraphPad Software, San Diego, Calif.) using a variable slope non-linear regression analysis.
Compound structures for Tables 3A, 3B and 3D are presented with the various groups as defined for the general structure of formula I. For Tables 3B and 3D, in all entries, m, n and p are 0; X, Z1 and Z2 are each NH. For Table 3B, R1 is H for all entries. The tethers (T) are illustrated with the bonding to X and Z2 as indicated. The compounds themselves are shown for Table 3C.
• 1. […] Key Aspects of Method • 1. […] Results

[2] = target: human ghrelin receptor (hGHS-R1a) (Homo sapiens, UniProt Q92847); assay: cell-based
Excerpt: B. Aequorin Functional Assay (Ghrelin Receptor)
This cell line is typically constructed by transfection of the human ghrelin receptor into CHO-K1 cells co-expressing Gα16 and the mitochondrially targeted Aequorin (Ref #ES-WT-A5). • 1. […] Assay buffer: DMEM (Dulbecco's Modified Eagles Medium) containing 0.1% BSA (bovine serum albumin; pH 7.0). • 3. Coelenterazine (Molecular Probes, Leiden, The Netherlands). Final test concentrations (N=8) for compounds of the invention: 10, 1, 0.3, 0.1, 0.03, 0.01, 0.003, 0.001 μM. Compound Handling
Assay plates were then prepared by appropriate dilution in DMEM medium containing 0.1% BSA. Under these conditions, the maximal final DMSO concentration in the assay was <0.6%.
AequoScreen™ cells were collected from culture plates with Ca^2+ and Mg^2+-free phosphate buffered saline (PBS) supplemented with 5 mM EDTA, pelleted for 2 min at 1000×g, re-suspended in DMEM—Ham's F12 containing 0.1% BSA at a density of 5×10^6 cells/mL, and incubated O/N at rt in the presence of 5 μM coelenterazinc. After loading, cells were diluted with assay buffer to a concentration of 5×10^5 cells/mL.
For agonist testing, 50 μL of the cell suspension was mixed with 50 μL of the appropriate concentration of test compound or ghrelin (reference agonist) in 96-well plates (duplicate samples). Ghrelin (reference agonist) was tested at several concentrations concurrently with the test compounds in order to validate the experiment. The emission of light resulting from receptor activation in response to ghrelin or test compounds was recorded using the Hamamatsu FDSS 6000 reader (Hamamatsu Photonics K.K., Japan).
Analysis and Expression of Results
Results were expressed as Relative Light Units (RLU). […] EC50, Hill slope and % Emax values are reported.
Key Aspects of Method • 1. Assay performed on CHO-K1 cells expressing the transfected, cloned human ghrelin receptor (hGHS-R1a) and Gα16. • 2. Suspended cells incubated O/N with coelenterazine. • 3. Stimulation of hGHS-R1a activates Gα16, causing intercellular Ca2+ release which ultimately leads to the oxidation of coelenterazine and the emission of a quantitative luminescent signal. • 4. Ghrelin was used as the positive control. • 5.

[3] = Table 4, binding at human ghrelin receptor, TFA salts unless otherwise noted, read-out: Ki
[4] = binding activity at the human ghrelin receptor, [125I]-ghrelin displacement, hGHS-R1a/HEK-293 membranes, read-out: Ki
[5] = [125I]-ghrelin displacement, hGHS-R1a HEK-293 membranes, read-out: Binding Activity at the Human Ghrelin Receptor (Ki)

T1 sequence (Q92847 whole entry): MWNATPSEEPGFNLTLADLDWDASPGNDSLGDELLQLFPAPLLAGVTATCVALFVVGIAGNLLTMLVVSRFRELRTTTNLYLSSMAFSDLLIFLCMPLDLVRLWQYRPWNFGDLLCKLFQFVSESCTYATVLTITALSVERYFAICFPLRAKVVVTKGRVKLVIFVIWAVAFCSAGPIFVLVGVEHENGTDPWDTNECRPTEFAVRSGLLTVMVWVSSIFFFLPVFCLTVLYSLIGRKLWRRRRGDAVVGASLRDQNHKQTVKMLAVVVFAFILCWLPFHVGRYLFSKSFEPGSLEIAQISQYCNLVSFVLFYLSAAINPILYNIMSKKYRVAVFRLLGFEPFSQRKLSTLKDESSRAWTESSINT
Chain of human ghrelin receptor (hGHS-R1a) (Q92847 whole entry): as above

| Structure (SMILES) | Ki [1, 3] [nM] | Ki [1, 4] [nM] | EC50 [2] [nM] | Ki [1, 5] [nM] |
| --- | --- | --- | --- | --- |
| CCCC1NCCOc2ccccc2CCCNC(=O)C(Cc2ccc(O)cc2)NC(=O)CN(C)C1=O (stereo not drawn) [compound 7] | 100 to 1000 | 100 to 10000 | 1 to 100 | – |
| CC(C)CC1NCCOc2ccccc2C=CCNC(=O)C(CC(C)C)NC(=O)C2(CCCC2)NC1=O (stereo not drawn) [compound 47] | 100 to 1000 | 100 to 10000 | 1 to 100 | – |
| CC(C)C1NCCOc2ccccc2C=CCNC(=O)C(Cc2ccccc2)NC(=O)C2(CCOCC2)NC1=O (stereo not drawn) [compound 140] | 100 to 1000 | 100 to 10000 | 100 to 1000 | – |
| CCC(C)C1NCCOCC=CCCNC(=O)C(Cc2ccccc2)NC(=O)C(C)N(C)C1=O (stereo not drawn) [compound 186] | 100 to 1000 | 100 to 10000 | 100 to 1000 | – |
| CCC(C)C1NCCCc2ccccc2C=CCCNC(=O)C(Cc2ccccc2)NC(=O)C(C)N(C)C1=O (stereo not drawn) [compound 191] | 100 to 1000 | – | 100 to 1000 | 100 to 10000 |
| CCC(C)C1NCCCc2ccccc2CCCCNC(=O)C(Cc2ccccc2)NC(=O)C(C)N(C)C1=O (stereo not drawn) [compound 192] | 10 to 100 | – | 100 to 1000 | 10 to 100 |
| CCC(C)C1NCc2ccccc2CC=CCNC(=O)C(Cc2ccccc2)NC(=O)C(C)N(C)C1=O (stereo not drawn) [compound 193] | 100 to 1000 | – | 100 to 1000 | 100 to 10000 |
| CCC(C)C1NCc2ccccc2CC=CCCNC(=O)C(Cc2ccccc2)NC(=O)C(C)N(C)C1=O (stereo not drawn) [compound 195] | 10 to 100 | – | 1 to 100 | 10 to 100 |

Results, then the compound that gave them:

| Ki [1, 3] [nM] | Ki [1, 4] [nM] | EC50 [2] [nM] | Ki [1, 5] [nM] | Structure (SMILES) |
| --- | --- | --- | --- | --- |
| 10 to 100 | 10 to 100 | 100 to 1000 | – | CCCCC1NCCOc2ccccc2CCCNC(=O)C(Cc2ccccc2)NC(=O)CN(C)C1=O (stereo not drawn) [Compound 1] |
| 10 to 100 | 10 to 100 | 100 to 1000 | – | CCCC1NCCOc2ccccc2C=CCNC(=O)C(Cc2ccccc2)NC(=O)CN(C)C1=O (stereo not drawn) [compound 11] |
| 10 to 100 | 10 to 100 | 1 to 100 | – | CCC(C)C1NCCOc2ccccc2CCCNC(=O)C(Cc2ccc(-c3ccccc3)cc2)NC(=O)C(C)N(C)C1=O (stereo not drawn) [compound 28] |
| 10 to 100 | 10 to 100 | 100 to 1000 | – | CCC(C)C1NCc2ccccc2CCCCCNC(=O)C(Cc2ccccc2)NC(=O)C(C)N(C)C1=O (stereo not drawn) [compound 38] |
| 0.1 to 10 | 10 to 100 | 100 to 1000 | – | CCCC1NCCOc2ccccc2C=CCNC(=O)C(Cc2ccccc2)NC(=O)C(C)N(C)C1=O (stereo not drawn) [compound 39] |
| 0.1 to 10 | 0.1 to 10 | 1 to 100 | – | CCC(C)C1NCCOc2ccccc2C=CCNC(=O)C(Cc2ccccc2)NC(=O)C(C)N(C)C1=O (stereo not drawn) [compound 40] |
| 10 to 100 | 10 to 100 | 1 to 100 | – | COc1ccc(CC2NC(=O)C3(CCCC3)NC(=O)C(CC(C)C)NCCOc3ccccc3C=CCNC2=O)cc1 (stereo not drawn) [compound 156] |
| 10 to 100 | 10 to 100 | 100 to 1000 | – | CCC(C)C1NCCOc2ccccc2CCCNC(=O)C(Cc2cccnc2)NC(=O)C(C)N(C)C1=O (stereo not drawn) [compound 170] |
| 10 to 100 | 10 to 100 | 1 to 100 | – | CCC(C)C1NCCOc2ccccc2CCCNC(=O)C(CC(C)C)NC(=O)C(C)N(C)C1=O (stereo not drawn) [compound 176] |
| 10 to 100 | 10 to 100 | 1 to 100 | – | CCC(C)C1NCCOc2cccnc2CCCNC(=O)C(Cc2ccccc2)NC(=O)C(C)N(C)C1=O (stereo not drawn) [compound 177] |

From patent USRE42013E1, “Macrocyclic modulators of the ghrelin receptor” (Tranzyme Pharma Inc., priority 2003, dated 2010)
